Measured values taken from EPA's ToxRefDB 2.

How the values were obtained:
[1] = system: rabbit; conditions: Prenatal developmental toxicity study, new zealand white, Oral, Gavage/Intubation, dose end: 28 GD
[2] = system: dog; conditions: Subchronic oral toxicity in nonrodent, beagle, Feed, dose end: 13 week, group: systemic, systemic / in life observation / body weight / body weight gain + systemic / in life observation / clinical signs / anemia + systemic / in …
[3] = system: rat; conditions: Subchronic oral toxicity in rodents, sprague dawley, Feed, dose end: 90 day, group: systemic, systemic / in life observation / body weight / body weight + systemic / in life observation / body weight / body weight gain
[4] = system: rat; conditions: Combined chronic toxicity/carcinogenicity, sprague dawley, Oral, Feed, dose end: 24 month, group: systemic
[5] = system: dog; conditions: Chronic toxicity, beagle, Oral, Feed, dose end: 52 week, group: systemic
[6] = system: rat; conditions: Multigenerational reproductive toxicity study, sprague dawley, Oral, Feed, dose end: 2 generation
[7] = system: mouse; conditions: Carcinogenicity, cd1, Oral, [Not Specified], dose end: 79 week, group: systemic
[8] = system: rat; conditions: Combined chronic toxicity/carcinogenicity, sprague dawley, Oral, Feed, dose end: 24 month, group: systemic; remark: listed apart in the source
[9] = system: mouse; conditions: Subchronic oral toxicity in rodents, cd1, Feed, dose end: 13 week, group: systemic
[10] = system: dog; conditions: Subchronic oral toxicity in nonrodent, beagle, Feed, dose end: 90 day, group: systemic
[11] = system: dog; conditions: Subchronic oral toxicity in nonrodent, beagle, Feed, dose end: 13 week, group: systemic
[12] = system: rat; conditions: Subchronic oral toxicity in rodents, sprague dawley, Feed, dose end: 90 day, group: systemic
[13] = system: rat; conditions: Multigenerational reproductive toxicity study, sprague dawley, Oral, Feed, dose end: 2 generation; remark: listed apart in the source
[14] = system: dog; conditions: Subchronic oral toxicity in nonrodent, beagle, Capsule, dose end: 13 week, group: systemic
[15] = system: rat; conditions: Subchronic oral toxicity in rodents, Sprague-Dawley, Feed, dose end: 90 day, group: systemic, systemic / in life observation / body weight / body weight gain
[16] = group: developmental, developmental / developmental malformation / bone / ossification sites + developmental / developmental malformation / lung / absent + …
[17] = group: maternal, reproductive / reproductive performance / premature delivery / premature delivery + systemic / in life observation / clinical signs / …
[18] = systemic / in life observation / body weight / body weight + systemic / in life observation / food consumption / food consumption + systemic…
[19] = systemic / organ weight / liver / relative to body weight + systemic / pathology microscopic / liver / infiltration cellular
[20] = systemic / clinical chemistry / alanine aminotransferase (alt/sgpt) / alanine aminotransferase (alt/sgpt)
[21] = systemic / hematology / anemia / anemia - nos + systemic / hematology / erythrocyte (rbc) count differential / erythrocyte (rbc) + systemic…
[22] = group: offspring, developmental / developmental landmark / preputial separation / preputial separation + systemic / in life observation / body weight / …
[23] = group: parental, systemic / in life observation / body weight / body weight + systemic / in life observation / body weight / body weight gain + systemic / …
[24] = group: reproductive, reproductive / offspring survival early / dead fetuses / dead fetuses
[25] = systemic / in life observation / body weight / body weight + systemic / in life observation / body weight / body weight gain + systemic / …
[26] = systemic / in life observation / body weight / body weight gain + systemic / in life observation / body weight / body weight + systemic / in…
[27] = systemic / in life observation / body weight / body weight gain + systemic / in life observation / food consumption / food efficiency
[28] = systemic / in life observation / body weight / body weight gain + systemic / in life observation / food consumption / food efficiency + …
[29] = systemic / in life observation / body weight / body weight gain + systemic / in life observation / food consumption / food consumption + …
[30] = systemic / in life observation / food consumption / food consumption + systemic / in life observation / body weight / body weight gain
[31] = systemic / in life observation / body weight / body weight + systemic / in life observation / body weight / body weight gain + systemic / in…
[32] = systemic / organ weight / heart / relative to body weight
[33] = group: offspring, systemic / in life observation / clinical signs / reduced body size
[34] = group: parental, systemic / in life observation / food consumption / food consumption
[35] = group: parental, systemic / in life observation / food consumption / food consumption + systemic / in life observation / body weight / body weight + systemic…
[36] = group: reproductive, reproductive / offspring survival early / litter size / litter size
[37] = systemic / clinical chemistry / gamma glutamyl transferase (ggt) / gamma glutamyl transferase (ggt) + systemic / in life observation / …

## CN/C(=N\[N+](=O)[O-])NCc1cnc(Cl)s1 [Clothianidin]
[1]; group: developmental, developmental / developmental malformation / bone / ossification sites + developmental / developmental malformation / lung / absent
  LOAEL: 75 mg/kg/day
[1]; [16]
  LEL: 75 mg/kg/day
  NEL: 25 mg/kg/day
  NOAEL: 25 mg/kg/day
[1]; [17]
  LEL: 75 mg/kg/day
  LOAEL: 75 mg/kg/day
  NEL: 25 mg/kg/day
  NOAEL: 25 mg/kg/day
[2]
  LEL: 40.9 mg/kg/day
  LOAEL: 40.9 mg/kg/day
  NEL: 19.3 mg/kg/day
  NOAEL: 19.3 mg/kg/day
[3]
  LEL: 202 mg/kg/day
  LOAEL: 202 mg/kg/day
  NOAEL: 27.9 mg/kg/day
[4]; [18]
  LOAEL: 97.8 mg/kg/day
  NOAEL: 32.5 mg/kg/day
[4]; [19]
  LEL: 9.7 mg/kg/day
  NEL: < 9.7 mg/kg/day
[5]; [20]
  LEL: 36.3 mg/kg/day
  NEL: 16.6 mg/kg/day
[5]; [21]
  LOAEL: 52.9 mg/kg/day
  NOAEL: 40.1 mg/kg/day
[6]; [22]
  LEL: 34.3 mg/kg/day
  LOAEL: 34.3 mg/kg/day
  NEL: 10.7 mg/kg/day
  NOAEL: 10.7 mg/kg/day
[6]; [23]
  LEL: 163 mg/kg/day
  LOAEL: 163 mg/kg/day
  NEL: 31.2 mg/kg/day
  NOAEL: 31.2 mg/kg/day
[6]; [24]
  LEL: 31.2 mg/kg/day
  LOAEL: 31.2 mg/kg/day
  NEL: 9.8 mg/kg/day
  NOAEL: 9.8 mg/kg/day
[7]; systemic / in life observation / body weight / body weight + systemic / in life observation / body weight / body weight gain
  LOAEL: 216 mg/kg/day
[7]; [25]
  NOAEL: 65.1 mg/kg/day
[7]; systemic / in life observation / clinical signs / excessive or spontaneous vocalization
  LEL: 171 mg/kg/day
[7]; systemic / in life observation / clinical signs / excessive or spontaneous vocalization + systemic / in life observation / body weight / …
  NEL: 47.2 mg/kg/day

## O=C(Nc1ccccc1)Nc1ccnc(Cl)c1 [Forchlorfenuron]
[8]; [25]
  LOAEL: 93 mg/kg/day
  NOAEL: 7 mg/kg/day
[8]; systemic / pathology microscopic / kidney / dilatation + systemic / organ weight / adrenal gland / absolute + systemic / organ weight / …
  NEL: 518 mg/kg/day
[9]; systemic / in life observation / body weight / body weight gain
  LOAEL: 1290 mg/kg/day
[9]; [26]
  LEL: 1290 mg/kg/day
  NEL: 609 mg/kg/day
  NOAEL: 609 mg/kg/day
[10]; [27]
  LOAEL: 173 mg/kg/day
  NOAEL: < 173 mg/kg/day
[10]; [28]
  LEL: 173 mg/kg/day
  NEL: < 173 mg/kg/day
[11]; [29]
  LOAEL: 162 mg/kg/day
  NOAEL: 16.8 mg/kg/day
[11]; [30]
  LEL: 1.8 mg/kg/day
  NEL: < 1.8 mg/kg/day
[12]; [31]
  LOAEL: 428 mg/kg/day
  NOAEL: 84 mg/kg/day
[12]; [32]
  LEL: 16 mg/kg/day
  NEL: < 16 mg/kg/day
[13]; group: offspring, systemic / in life observation / body weight / offspring (pup) weight + developmental / offspring survival late / lactation index / …
  NOAEL: 13 mg/kg/day
[13]; group: offspring, systemic / in life observation / body weight / offspring (pup) weight + systemic / in life observation / clinical signs / reduced body size
  LOAEL: 168 mg/kg/day
[13]; [33]
  LEL: 13 mg/kg/day
  NEL: < 13 mg/kg/day
[13]; [34]
  LEL: 144 mg/kg/day
  LOAEL: 144 mg/kg/day
[13]; [35]
  NEL: 11 mg/kg/day
  NOAEL: 11 mg/kg/day
[13]; [36]
  LEL: 829 mg/kg/day
  LOAEL: 829 mg/kg/day
  NEL: 168 mg/kg/day
  NOAEL: 168 mg/kg/day

## CCc1cccc(C)c1N(C(=O)CS(=O)(=O)O)C(C)COC (configuration not stated) [Metolachlor ESA]
[14]; systemic / clinical chemistry / gamma glutamyl transferase (ggt) / gamma glutamyl transferase (ggt) + systemic / clinical chemistry / …
  LEL: 200 mg/kg/day
[14]; [37]
  LOAEL: > 1000 mg/kg/day
  NOAEL: ≥ 1000 mg/kg/day
[15]
  LEL: 1540 mg/kg/day
  LOAEL: > 1540 mg/kg/day
  NEL: 427 mg/kg/day
  NOAEL: ≥ 1540 mg/kg/day
